Laboratory results published in PubChem BioAssay AID1963862 (Molecular Pharmacology Branch, DTP, NCI, 2024).

Tested on: KRAS patient-derived spheroids with HUVEC/MSC, viability
Experiment: Anticancer human tumor 941728-121-R-J1-PDC patient-derived lung adenocarcinoma cell line growth inhibition [KRAS2]
Conditions: for viability, T/C: stronger effect = lower value
In short: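 Combination screen of spheroid viability in tumor-cell co-cultures with endothelial (HUVEC) and mesenchymal stem cell stroma. Each agent was tested in half-log dilutions, topping at clinical Cmax or at 10 microM without a known Cmax.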

[1] = curve of first compound, second compound 0.1 µM
[2] = curve of first compound, second compound 0.316 µM
[3] = curve of first compound, second compound 1 µM
[4] = curve of first compound, second compound 3.16 µM
[5] = curve of first compound, second compound 10 µM
[6] = second compound 0.1 µM, first compound 0.01 µM
[7] = second compound 0.1 µM, first compound 0.0316 µM
[8] = second compound 0.1 µM, first compound 0.1 µM
[9] = second compound 0.1 µM, first compound 0.316 µM
[10] = second compound 0.1 µM, first compound 1 µM
[11] = second compound 0.1 µM, first compound 3.16 µM
[12] = second compound 0.316 µM, first compound 0.01 µM
[13] = second compound 0.316 µM, first compound 0.0316 µM
[14] = second compound 0.316 µM, first compound 0.1 µM
[15] = second compound 0.316 µM, first compound 0.316 µM
[16] = second compound 0.316 µM, first compound 1 µM
[17] = second compound 0.316 µM, first compound 3.16 µM
[18] = second compound 1 µM, first compound 0.01 µM
[19] = second compound 1 µM, first compound 0.0316 µM
[20] = second compound 1 µM, first compound 0.1 µM
[21] = second compound 1 µM, first compound 0.316 µM
[22] = second compound 1 µM, first compound 1 µM
[23] = second compound 1 µM, first compound 3.16 µM
[24] = second compound 3.16 µM, first compound 0.01 µM
[25] = second compound 3.16 µM, first compound 0.0316 µM
[26] = second compound 3.16 µM, first compound 0.1 µM
[27] = second compound 3.16 µM, first compound 0.316 µM
[28] = second compound 3.16 µM, first compound 1 µM
[29] = second compound 3.16 µM, first compound 3.16 µM
[30] = second compound 10 µM, first compound 0.01 µM
[31] = second compound 10 µM, first compound 0.0316 µM
[32] = second compound 10 µM, first compound 0.1 µM
[33] = second compound 10 µM, first compound 0.316 µM
[34] = second compound 10 µM, first compound 1 µM
[35] = second compound 10 µM, first compound 3.16 µM
[36] = second compound 0.1 µM, first compound 10 µM
[37] = second compound 0.316 µM, first compound 10 µM
[38] = second compound 1 µM, first compound 10 µM
[39] = second compound 3.16 µM, first compound 10 µM
[40] = second compound 10 µM, first compound 10 µM
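Note: spheroids exposed to agents for seven days before readout.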

CC(=O)OC12COC1CC(O)C1(C)C(=O)C(O)C3=C(C)C(OC(=O)C(O)C(NC(=O)OC(C)(C)C)c4ccccc4)CC(O)(C(OC(=O)c4ccccc4)C21)C3(C)C (stereo unspecified) + CC1OCC2(CCN(c3cnc(Sc4ccnc(N)c4Cl)c(N)n3)CC2)C1N
IC50 [1]: < 10 nM
IC50 [2]: < 10 nM
IC50 [3]: < 10 nM
IC50 [4]: < 10 nM
IC50 [5]: < 10 nM
viability, T/C [6]: 42.3%
viability, T/C [7]: 34.6%
viability, T/C [8]: 33.9%
viability, T/C [9]: 39.2%
viability, T/C [10]: 39.5%
viability, T/C [11]: 41.6%
viability, T/C [12]: 37.1%
viability, T/C [13]: 34.4%
viability, T/C [14]: 30.2%
viability, T/C [15]: 32.1%
viability, T/C [16]: 37.2%
viability, T/C [17]: 38.9%
viability, T/C [18]: 49.8%
viability, T/C [19]: 52.4%
viability, T/C [20]: 44%
viability, T/C [21]: 45.9%
viability, T/C [22]: 53.4%
viability, T/C [23]: 54%
viability, T/C [24]: 24.4%
viability, T/C [25]: 23.3%
viability, T/C [26]: 21.5%
viability, T/C [27]: 27.3%
viability, T/C [28]: 29.8%
viability, T/C [29]: 27.4%
viability, T/C [30]: 26.5%
viability, T/C [31]: 25.6%
viability, T/C [32]: 23.1%
viability, T/C [33]: 24.8%
viability, T/C [34]: 30.1%
viability, T/C [35]: 30.2%

CC(=O)Nc1cccc(-n2c(=O)n(C3CC3)c(=O)c3c(Nc4ccc(I)cc4F)n(C)c(=O)c(C)c32)c1 + C=CC(=O)N1CCN(c2nc(=O)n(-c3c(C)ccnc3C(C)C)c3nc(-c4c(O)cccc4F)c(F)cc23)C(C)C1
IC50 [1]: < 0.1 nM
IC50 [2]: < 0.1 nM
IC50 [3]: < 0.1 nM
IC50 [4]: < 0.1 nM
IC50 [5]: < 0.1 nM
viability, T/C (second compound 0.1 µM, first compound 0.0001 µM): 27.9%
viability, T/C (second compound 0.1 µM, first compound 0.000316 µM): 26.2%
viability, T/C (second compound 0.1 µM, first compound 0.001 µM): 20.3%
viability, T/C (second compound 0.1 µM, first compound 0.00316 µM): 21.6%
viability, T/C [6]: 19.6%
viability, T/C [7]: 19.3%
viability, T/C (second compound 0.316 µM, first compound 0.0001 µM): 26%
viability, T/C (second compound 0.316 µM, first compound 0.000316 µM): 25.4%
viability, T/C (second compound 0.316 µM, first compound 0.001 µM): 24.1%
viability, T/C (second compound 0.316 µM, first compound 0.00316 µM): 22.9%
viability, T/C [12]: 20.2%
viability, T/C [13]: 19.3%
viability, T/C (second compound 1 µM, first compound 0.0001 µM): 27.5%
viability, T/C (second compound 1 µM, first compound 0.000316 µM): 28.3%
viability, T/C (second compound 1 µM, first compound 0.001 µM): 24.2%
viability, T/C (second compound 1 µM, first compound 0.00316 µM): 23.6%
viability, T/C [18]: 22.3%
viability, T/C [19]: 20.4%
viability, T/C (second compound 3.16 µM, first compound 0.0001 µM): 27.3%
viability, T/C (second compound 3.16 µM, first compound 0.000316 µM): 30.1%
viability, T/C (second compound 3.16 µM, first compound 0.001 µM): 26.9%
viability, T/C (second compound 3.16 µM, first compound 0.00316 µM): 25.9%
viability, T/C [24]: 28.6%
viability, T/C [25]: 23.4%
viability, T/C (second compound 10 µM, first compound 0.0001 µM): 35.8%
viability, T/C (second compound 10 µM, first compound 0.000316 µM): 31.4%
viability, T/C (second compound 10 µM, first compound 0.001 µM): 36.3%
viability, T/C (second compound 10 µM, first compound 0.00316 µM): 36.2%
viability, T/C [30]: 29.6%
viability, T/C [31]: 29%

CC1OCC2(CCN(c3cnc(Sc4ccnc(N)c4Cl)c(N)n3)CC2)C1N (stereo unspecified) + C=CC(=O)N1CCN(c2nc(=O)n(-c3c(C)ccnc3C(C)C)c3nc(-c4c(O)cccc4F)c(F)cc23)C(C)C1
IC50 [1]: < 31.6 nM
IC50 [2]: < 31.6 nM
IC50 [3]: < 31.6 nM
IC50 [4]: < 31.6 nM
IC50 [5]: < 31.6 nM
viability, T/C [7]: 21.9%
viability, T/C [8]: 20.6%
viability, T/C [9]: 17.3%
viability, T/C [10]: 16.8%
viability, T/C [11]: 16.6%
viability, T/C [36]: 12.9%
viability, T/C [13]: 26.5%
viability, T/C [14]: 23%
viability, T/C [15]: 20.1%
viability, T/C [16]: 17.1%
viability, T/C [17]: 15.1%
viability, T/C [37]: 12.4%
viability, T/C [19]: 31.1%
viability, T/C [20]: 24.7%
viability, T/C [21]: 20.4%
viability, T/C [22]: 18.9%
viability, T/C [23]: 19.6%
viability, T/C [38]: 17.8%
viability, T/C [25]: 29%
viability, T/C [26]: 25.4%
viability, T/C [27]: 25.6%
viability, T/C [28]: 21.5%
viability, T/C [29]: 22.1%
viability, T/C [39]: 18.5%
viability, T/C [31]: 34.1%
viability, T/C [32]: 35%
viability, T/C [33]: 31%
viability, T/C [34]: 26.8%
viability, T/C [35]: 26.7%
viability, T/C [40]: 28.5%

CC(C)NCC(C(=O)N1CCN(c2ncnc3c2C(C)CC3O)CC1)c1ccc(Cl)cc1 (stereo unspecified)
viability, T/C (compound 0.0316 µM): 92.1% [middle of 5 runs]
viability, T/C (compound 0.1 µM): 90.6% [middle of 5 runs]
viability, T/C (compound 0.316 µM): 56.5% [middle of 5 runs]
viability, T/C (compound 1 µM): 43.8% [middle of 5 runs]
viability, T/C (compound 10 µM): 31.9% [middle of 5 runs]
IC50 (curve of compound): 592 nM [middle of 5 runs]

CCNC(=O)CC1N=C(c2ccc(Cl)cc2)c2cc(OC)ccc2-n2c(C)nnc21 (stereo unspecified) + C=CC(=O)N1CCN(c2nc(=O)n(-c3c(C)ccnc3C(C)C)c3nc(-c4c(O)cccc4F)c(F)cc23)C(C)C1
IC50 [1]: < 31.6 nM
IC50 [2]: < 31.6 nM
IC50 [3]: < 31.6 nM
IC50 [4]: < 31.6 nM
IC50 [5]: < 31.6 nM
viability, T/C [7]: 25.4%
viability, T/C [8]: 27%
viability, T/C [9]: 21.2%
viability, T/C [10]: 14.3%
viability, T/C [11]: 11.7%
viability, T/C [36]: 10.8%
viability, T/C [13]: 27.4%
viability, T/C [14]: 23.8%
viability, T/C [15]: 20.4%
viability, T/C [16]: 14.7%
viability, T/C [17]: 13%
viability, T/C [37]: 10.3%
viability, T/C [19]: 28.9%
viability, T/C [20]: 28.7%
viability, T/C [21]: 21.7%
viability, T/C [22]: 16.2%
viability, T/C [23]: 14%
viability, T/C [38]: 10.7%
viability, T/C [25]: 30.4%
viability, T/C [26]: 28%
viability, T/C [27]: 22.5%
viability, T/C [28]: 18.3%
viability, T/C [29]: 11.6%
viability, T/C [39]: 8.77%
viability, T/C [31]: 34.1%
viability, T/C [32]: 31.6%
viability, T/C [33]: 23.4%
viability, T/C [34]: 15.1%
viability, T/C [35]: 11%
viability, T/C [40]: 8.28%
